“Also recorded” adds a separate entry of the source.

The values that follow come from patent publication US20220160812A1, “A PHARMACEUTICALLY ACTIVE SUBSTANCE” (Cytopharma GmbH, priority 2019, published 2022).

The test system of experiment [1] is human breast carcinoma cells (MDA-MB-231). Kind of experiment: subG1 cell cycle FACS apoptosis assay, MDA-MB-231 cells. The class given is cell-based. The conditions noted are these: about 24 hours; for apoptosis-inducing activity (subG1) relative to peptides SEQID No 28 and SEQID No 1: MDA-MB-231, SEQID No 41 at 50 μM versus monomeric peptides at 100 μM, FIG. 18. Here is the method:
(§1) The adherent cells (A375 and BxPC-3 cells and MDA-MB-231, respectively) are seeded 24 hours before induction in 6-well plates in culture medium. For this, the cells are washed with PBS, then incubated with trypsin/EDTA solution at 37 degrees Celsius and suspended in culture medium. The 6-well plates are loaded with 1×10^5 cells/cm^2 in culture medium and the cells incubated for 24 hours until induction with the peptides in the incubator. For induction, the peptides are diluted in fresh culture medium. As control solutions, culture medium without peptide (DMSO-containing) in culture medium or etoposide solution is added. The cells are washed with PBS. Thereafter the peptide solution in culture medium is added to the cells. After incubation in the incubator (37° C., 5% CO2) between 1.5 and 24 hours, the cell supernatant is transferred to 15 ml centrifuge tubes, the cells are washed with 0.75 ml PBS and then with 0.5 ml versene solution. Both washings are combined with the cell supernatant. The cells are then added with 0.5 ml of trypsin/EDTA solution and incubated at about 37° C. for at most 10 minutes until the cells detached. The cell suspension is combined with cell supernatant and washings and centrifuged at about 130 g for about 10 minutes. After removing the supernatant, the cells are suspended in 400 μl of cell culture medium (without serum) and mixed with 1.2 ml of 80% ethanol/20% PBS (v/v) and incubated for 1 to 7 days at −20° C. For analysis, the cells are centrifuged at 130 g for 10 min, suspended in 2 ml PBS, and centrifuged again for 5 min. The cells are suspended in 700 μl PI buffer and incubated for 10 min at 37° C. in the dark. Subsequently, the cells are stored dark for a maximum of four hours in an ice bath, then the FACS analysis is performed.
The second method analyzes the cell cycle phases which is drawn from the relative DNA content. Cells labeled by a fluorescent dye, using either DAPI or propidium iodide (PI) were analyzed by a cell sorter. The protocols for cell cultivation, treatment and preparation and staining of the cells for the flow cytometry is given in separate examples. […] When cells die by apoptosis, cellular changes lead to diminished DNA content resulting in a new peak located before the G0/G1 peak, often called “subG1” peak (Broecker-Preuss et al. 2015; Darzynkiewicz et al., 1992; Dbaibo et al. 1998; Fischbeck et al. 2011).
The “Flowing Software 2” program is used to draw from the raw data of the flow cytometer an FSC/SSC plot. This first step is performed in order to analyze a selected cell fraction excluding cells with both small FSC and small SSC values. Therefore, a gating area is drawn in a two-dimensional FSC/SSC plot (region R-1) which contains mainly intact cells, but no small vesicles. This is initially done for each cell type using reference cells which were not incubated with substances inducing cell death. By this selection of the cell fraction, a bias is prevented which would include a very high number of small cellular vesicles (apoptotic bodies) that are formed by membrane blebbing from dying cells, which have a low DNA content but which, by their large number, would increase the fraction of presumptive subG1 cells. […] In this DNA content plot, an analytical region is drawn in the area of lower DNA content to count the cells that show a subG1 peak, as illustrated in FIG. 1. The fraction of apoptotic cells is defined as the fraction of cells with DNA content in the subG1 region as part of the total number of cells in the DNA content plot (FIG. 1).
The evaluation of the FACS analysis to determine the subG1 data was also carried out with the program Flowing Software, version 2.5.1. The fluorescence in the respective analysis channel for DAPI or propidium iodide was plotted as a histogram, the data from the respectively defined region R-1 being utilized (see FIG. 1). […]

The subject of experiment [2] is BxPC-3 human pancreatic cancer cells. Kind of experiment: subG1 cell cycle FACS apoptosis assay, BxPC-3 cells. The class given is cell-based. The conditions noted are these: BxPC-3, Protocol B, about 24 hours; for apoptosis-inducing activity (subG1) relative to peptides SEQID No 28 and SEQID No 27: SEQID No 41 at 50 μM versus monomeric peptides at 100 μM, FIG. 19. As to the method: (§2) To transfer adherent cells (A375 and BxPC-3 cells) after culture, cells are washed twice with PBS. To detach the cells, the enzyme biotase is used according to the manufacturer's instructions. For this purpose, after washing with PBS, the cells are mixed with biotase (5 ml of biotase solution per 75 cm^2 surface of the cell culture bottles) and incubated for 5 min at 37 degrees Celsius, and the biotase is separated by centrifugation. Cells cultivated in suspension (MEC-1 and lymphocytes) were transferred by dilution. The cells are suspended in culture medium and counted, each time 1.5×10^5 cells/cm^2 are seeded in 48-well plates and cultured for between 1.5 and 24 hours at 37 degrees Celsius, 5% CO2. Peptides are pre-diluted from stock solution with culture medium and 200 μl of peptide solution added so that final concentrations of 30 to 500 μM peptide are present in at most 1% (v/v) DMSO. As control solutions, culture medium without peptide (DMSO-containing) in culture medium or etoposide solution is added. After incubating the cells for several hours, the cell supernatant is transferred to a FACS tube for each batch and, after washing the cells with PBS, the wash solution is added. Then the cells are incubated with 200 μl of biotase solution for 10 min, 37° C., the cells with the biotase are also transferred to the FACS tube and the cells are collected by centrifugation for 5 min. The cell pellet is suspended in 500 μl of serum-free culture medium, then 1.5 ml of cold 80% ethanol (ethanol/PBS-80/20, v/v, stored at −20° C.) is added, the FACS tubes sealed and stored at −20 degrees Celsius for 15 to 18 h. Thereafter, the cells are centrifuged for 5 minutes at 120 g, suspended after removal of the supernatant in 2 ml PBS and incubated at 37 degrees Celsius for 30 minutes. After re-centrifugation, the cells are suspended in 0.5 ml DAPI solution and incubated for 15 min at 20 degrees Celsius in the dark. Thereafter, the cells are stored dark for a maximum of four hours in an ice bath, followed by the FACS analysis.
as §1, with “performed. […]” for “performed.”

Experiment [3] relates to A375 melanoma cells. Briefly: subG1 cell cycle FACS apoptosis assay, A375 melanoma cells. The class given is cell-based, human. The conditions noted are these: A375, Protocol B, 100 μM, about 24 hours, FIG. 2. Here is the method: as §2, §1
The proportion of cells which have died was determined by two methods, both rely on the analysis of cells by flow cytometry, often called FACS analysis. […]

For “k-k-w-m-v-v-y-f-r-k-s-g-s-g-s-k-k-w-m-v-v-y-f-r-k [SEQID No 41]”, the “apoptosis-inducing activity (subG1) relative to peptides SEQID No 28 and SEQID No 1” value in experiment [1] was “at least double”; in experiment [1] (listed as dimeric peptide), “more than two-fold”. Besides, the results for the “apoptosis-inducing activity (subG1) relative to peptides SEQID No 28 and SEQID No 27” value in experiment [2] and in experiment [2] (listed as dimeric peptide) were “at least double” and “more than two-fold”, respectively.
Take k-m-v-v-y-f-r [SEQID No 2]: the “apoptosis-inducing activity (subG1), comparison in words” value (“apoptosis-inducing activity … in words” below) in experiment [1] (MDA-MB-231, 200 μM, FIG. 13) is “increased apoptosis-inducing activity compared to the peptide SEQ C1”. Also, the “apoptosis induction (subG1), comparison in words” value (“apoptosis induction (subG1)” for short) in experiment [2] (100 μM, FIG. 14) is given as “stronger apoptosis induction compared to SEQ C1”.
With k-w-m-v-v-y-f-r [SEQID No 9], in experiment [2] (100 μM, FIG. 14), the “apoptosis efficiency (subG1) in view of Peptide SEQ C1” value is reported as “at least fourfold”; the “apoptosis efficiency (subG1) in view of Peptide SEQ No 12” value is reported as “at least threefold”; the “apoptosis induction (subG1)” value is reported as “stronger apoptosis induction compared to SEQ C1; also recorded: strongly improved activity compared to peptide SEQID No 1”. Besides, the “apoptosis efficiency (subG1), comparison in words” value in experiment [3] is “extraordinary increased activity compared to peptide SEQ C1”.
In the case of m-v-v-y-f-r-k [SEQID No 4], the “apoptosis-inducing activity … in words” value in experiment [1] (MDA-MB-231, 200 μM, FIG. 13) is recorded as “increased apoptosis-inducing activity compared to the peptide SEQ C1”.
Turning to m-v-v-y-f-r-w [SEQID No 3], the “apoptosis-inducing activity … in words” value in experiment [1] (MDA-MB-231, 200 μM, FIG. 13) is “increased apoptosis-inducing activity compared to the peptide SEQ C1”. Moreover, the “apoptosis induction (subG1)” value in experiment [2] (100 μM, FIG. 14) is reported as “stronger apoptosis induction compared to SEQ C1”.
With q-k-w-m-v-v-y-f-r-k [SEQID No 28], the “apoptosis-inducing activity … in words” value in experiment [1] (MDA-MB-231, 100 μM, FIG. 15) was “higher apoptosis-inducing activity”; in experiment [1] (MDA-MB-231, 100 μM, FIG. 15, listed as SEQID NO 28), “improvement over SEQID NO 27”.
Consider “r-a-s-k-s-q-t-v-k-k-w-m-v-v-y-f-r-k-s-a-r [SEQID No 35]”, for which the “apoptosis efficiency (subG1), in words” value in experiment [2] (100 and 200 μM, Examples 107-110) is reported as “slightly higher apoptosis than the peptide sequence SEQID NO 33; also recorded: considerable efficiency to induce apoptosis in pancreatic cancer cells”.
Regarding r-s-t-q-k-w-m-v-v-y-f-r-k [SEQID No 40], in experiment [1] (MDA-MB-231, 100 μM, FIG. 16, listed as SEQID 40), the “apoptosis-inducing activity … in words” value is on record as “slightly smaller efficiency than SEQID No 33”. Besides, in experiment [2] (100 μM, FIG. 17), the “apoptosis efficiency (subG1), comparison in words” value was “weaker activity”.
With w-m-v-v-y-f-r [SEQID No 1], the “apoptosis-inducing activity … in words” value in experiment [1] (MDA-MB-231, 200 μM, FIG. 13) was “increased apoptosis-inducing activity compared to the peptide SEQ C1”. In addition, the “apoptosis induction (subG1)” value in experiment [2] (100 μM, FIG. 14) was “stronger apoptosis induction compared to SEQ C1”.
The matching figures for w-w-m-v-v-y-f-r [SEQID No 12]: “slightly decreased activity compared to peptide SEQID No 1; also recorded: remarkably improved efficiency than SEQ C1” and “stronger apoptosis induction compared to SEQ C1”.
